{
  "source": "paper PMC5218480",
  "about": "(PLoS ONE, 2017)",
  "system": "MV-4-11 cells",
  "experiment": "Gene expression microarray analysis (Affymetrix PrimeView) and GSEA",
  "type": "cell-based, human",
  "parameters": "RFU PODN (11730768_x_at) / Fold change /veh PODN (11730768_x_at) / RFU LINC00158 (11744669_a_at) / Fold change /veh LINC00158 (11744669_a_at) / RFU DUSP10 (11751237_a_at) / Fold change /veh DUSP10 (11751237_a_at) / RFU ID3 (11757404_x_at) / Fold change /veh ID3 (11757404_x_at) / RFU PLEKHG5 (11737974_s_at) / Fold change /veh PLEKHG5 (11737974_s_at) / RFU LRRC4B (11730491_at) / Fold change /veh LRRC4B (11730491_at) / RFU GIMAP4 (11747438_a_at) / Fold change /veh GIMAP4 (11747438_a_at) / RFU KRT8 (11758183_x_at) / Fold change /veh KRT8 (11758183_x_at) / RFU CNN1 (11734310_a_at) / Fold change /veh CNN1 (11734310_a_at) / RFU VPS37D (11726825_at) / Fold change /veh VPS37D (11726825_at) / RFU C10orf10 (11716522_x_at) / Fold change /veh C10orf10 (11716522_x_at) / RFU KIR2DL2 /// KIR2DL4 /// KIR2DL5A /// KIR2DL5B /// KIR2DS1 /// KIR2DS2 /// KIR2DS3 /// KIR2DS4 /// KIR3DL3 /// KIR3DL3 /// KIR3DS1 (11738374_at) / Fold change /veh KIR2DL2 /// KIR2DL4 /// KIR2DL5A /// KIR2DL5B /// KIR2DS1 /// KIR2DS2 /// KIR2DS3 /// KIR2DS4 /// KIR3DL3 /// KIR3DL3 /// KIR3DS1 (11738374_at) / RFU C1QL1 (11718748_at) / Fold change /veh C1QL1 (11718748_at) / RFU TMPRSS4 (11747572_a_at) / Fold change /veh TMPRSS4 (11747572_a_at) / RFU HAMP (11756126_x_at) / Fold change /veh HAMP (11756126_x_at) / RFU RNFT2 (11725882_a_at) / Fold change /veh RNFT2 (11725882_a_at) / RFU NR4A2 (11747474_a_at) / Fold change /veh NR4A2 (11747474_a_at) / RFU ABCC12 (11746883_a_at) / Fold change /veh ABCC12 (11746883_a_at) / RFU TMEM136 (11760407_x_at) / Fold change /veh TMEM136 (11760407_x_at) / RFU CLDN22 /// WWC2 (11732394_at) / Fold change /veh CLDN22 /// WWC2 (11732394_at) / RFU HLA-DPB1 (11760878_x_at) / Fold change /veh HLA-DPB1 (11760878_x_at) / RFU SPINT1 (11716480_a_at) / Fold change /veh SPINT1 (11716480_a_at) / RFU GAP43 (11754022_s_at) / Fold change /veh GAP43 (11754022_s_at) / RFU A4GNT (11735810_at) / Fold change /veh A4GNT (11735810_at) / RFU PRB3 (11715151_x_at) / Fold change /veh PRB3 (11715151_x_at) / RFU TUBB4B (11761932_at) / Fold change /veh TUBB4B (11761932_at) / RFU CAPN14 (11732068_a_at) / Fold change /veh CAPN14 (11732068_a_at) / RFU TMCC2 (11721928_a_at) / Fold change /veh TMCC2 (11721928_a_at) / RFU IRGQ (11745062_a_at) / Fold change /veh IRGQ (11745062_a_at) / RFU FAM174B (11720279_a_at) / Fold change /veh FAM174B (11720279_a_at) / RFU TMPRSS4 (11748680_a_at) / Fold change /veh TMPRSS4 (11748680_a_at) / RFU FAM212B (11763350_a_at) / Fold change /veh FAM212B (11763350_a_at) / RFU PLEKHG5 (11743358_a_at) / Fold change /veh PLEKHG5 (11743358_a_at) / RFU ZSCAN30 (11745921_a_at) / Fold change /veh ZSCAN30 (11745921_a_at) / RFU CMKLR1 (11741424_a_at) / Fold change /veh CMKLR1 (11741424_a_at) / RFU LOC101060620 /// MAPK8IP1 (11723275_at) / Fold change /veh LOC101060620 /// MAPK8IP1 (11723275_at) / RFU SPTSSB (11747773_x_at) / Fold change /veh SPTSSB (11747773_x_at) / RFU PRSS12 (11739890_at) / Fold change /veh PRSS12 (11739890_at) / RFU BIN1 (11741810_x_at) / Fold change /veh BIN1 (11741810_x_at) / RFU WNT11 (11732464_a_at) / Fold change /veh WNT11 (11732464_a_at) / RFU C10orf10 (11716521_a_at) / Fold change /veh C10orf10 (11716521_a_at) / RFU C5orf56 (11738089_at) / Fold change /veh C5orf56 (11738089_at) / RFU CYB561 (11721691_x_at) / Fold change /veh CYB561 (11721691_x_at) / RFU ANKRD19P (11752326_a_at) / Fold change /veh ANKRD19P (11752326_a_at) / RFU OR2T12 /// OR2T33 /// OR2T8 (11738714_s_at) / Fold change /veh OR2T12 /// OR2T33 /// OR2T8 (11738714_s_at) / RFU VCAN (11748164_a_at) / Fold change /veh VCAN (11748164_a_at) / RFU JSRP1 (11732532_at) / Fold change /veh JSRP1 (11732532_at) / RFU KRTAP10-11 (11738290_x_at) / Fold change /veh KRTAP10-11 (11738290_x_at) / RFU MYO3A (11730013_a_at) / Fold change /veh MYO3A (11730013_a_at) / RFU EBF3 (11725865_a_at) / Fold change /veh EBF3 (11725865_a_at) / RFU CAMK2N1 (11719241_x_at) / Fold change /veh CAMK2N1 (11719241_x_at) / RFU C5orf56 (11738088_a_at) / Fold change /veh C5orf56 (11738088_a_at) / RFU OLFML3 (11715873_a_at) / Fold change /veh OLFML3 (11715873_a_at) / RFU LOC100653217 /// NTM (11731650_a_at) / Fold change /veh LOC100653217 /// NTM (11731650_a_at) / RFU MAPK11 (11762145_a_at) / Fold change /veh MAPK11 (11762145_a_at) / RFU FIZ1 (11724087_x_at) / Fold change /veh FIZ1 (11724087_x_at) / RFU OASL (11726364_x_at) / Fold change /veh OASL (11726364_x_at) / RFU SOX15 (11748057_x_at) / Fold change /veh SOX15 (11748057_x_at) / RFU CD79A (11719716_a_at) / Fold change /veh CD79A (11719716_a_at) / RFU HIST1H1D (11736915_at) / Fold change /veh HIST1H1D (11736915_at) / RFU CASKIN2 (11723855_a_at) / Fold change /veh CASKIN2 (11723855_a_at) / RFU LOC730098 (11760151_x_at) / Fold change /veh LOC730098 (11760151_x_at) / RFU OR4N2 (11742367_at) / Fold change /veh OR4N2 (11742367_at) / RFU PRRT2 (11749266_a_at) / Fold change /veh PRRT2 (11749266_a_at) / RFU SNX32 (11753110_a_at) / Fold change /veh SNX32 (11753110_a_at) / RFU CDHR5 (11726645_a_at) / Fold change /veh CDHR5 (11726645_a_at) / RFU RCAN1 (11760418_a_at) / Fold change /veh RCAN1 (11760418_a_at) / RFU FAM167A (11723789_a_at) / Fold change /veh FAM167A (11723789_a_at) / RFU FAM26E (11764081_at) / Fold change /veh FAM26E (11764081_at) / RFU ISYNA1 (11749810_s_at) / Fold change /veh ISYNA1 (11749810_s_at) / RFU ACY1 (11761880_at) / Fold change /veh ACY1 (11761880_at) / RFU 11764098_at / Fold change /veh 11764098_at / RFU SAMD14 (11745864_x_at) / Fold change /veh SAMD14 (11745864_x_at) / RFU NPB (11741838_a_at) / Fold change /veh NPB (11741838_a_at) / RFU TMPRSS6 (11731388_a_at) / Fold change /veh TMPRSS6 (11731388_a_at) / RFU KRTAP10-2 (11738614_at) / Fold change /veh KRTAP10-2 (11738614_at) / RFU ARHGAP8 /// PRR5-ARHGAP8 (11727945_x_at) / Fold change /veh ARHGAP8 /// PRR5-ARHGAP8 (11727945_x_at) / RFU KRTAP5-7 /// NADSYN1 (11734609_at) / Fold change /veh KRTAP5-7 /// NADSYN1 (11734609_at) / RFU RASL12 (11751679_a_at) / Fold change /veh RASL12 (11751679_a_at) / RFU CDKN2B (11736163_a_at) / Fold change /veh CDKN2B (11736163_a_at) / RFU PRF1 (11729649_at) / Fold change /veh PRF1 (11729649_at) / RFU, ZNF638 /// ZNF638-IT1 / Fold change vs veh, ZNF638 /// ZNF638-IT1 / RFU, PANK3 / Fold change vs veh, PANK3 / RFU, SH3YL1 / Fold change vs veh, SH3YL1 / RFU, ZEB2 / Fold change vs veh, ZEB2 / RFU, NRIP1 / Fold change vs veh, NRIP1 / RFU, PTTG1IP / Fold change vs veh, PTTG1IP / RFU, CAPN2 / Fold change vs veh, CAPN2 / RFU, MED14 / Fold change vs veh, MED14 / RFU, SNORA58 / Fold change vs veh, SNORA58 / RFU, C1orf63 / Fold change vs veh, C1orf63 / RFU, LRRFIP1 / Fold change vs veh, LRRFIP1 / RFU, NDUFAF7 / Fold change vs veh, NDUFAF7 / RFU, SLC12A2 / Fold change vs veh, SLC12A2 / RFU, IBTK / Fold change vs veh, IBTK / RFU, ESF1 / Fold change vs veh, ESF1 / Fold change vs veh, TMEM50B / RFU, TAOK1 / Fold change vs veh, TAOK1 / RFU, ACBD3 / Fold change vs veh, ACBD3 / RFU, TMA16 / Fold change vs veh, TMA16 / RFU, RWDD3 / Fold change vs veh, RWDD3 / RFU, BCAT1 / Fold change vs veh, BCAT1 / RFU, EDEM3 / Fold change vs veh, EDEM3 / RFU, TMEM33 / Fold change vs veh, TMEM33 / RFU, WDR75 / Fold change vs veh, WDR75 / RFU, AHCTF1 / Fold change vs veh, AHCTF1 / RFU, TFRC / Fold change vs veh, TFRC / RFU, ZDHHC17 / Fold change vs veh, ZDHHC17 / RFU, NOM1 / Fold change vs veh, NOM1 / RFU, ARL8B / Fold change vs veh, ARL8B / RFU, ZBTB11 / Fold change vs veh, ZBTB11 / RFU, TAMM41 / Fold change vs veh, TAMM41 / RFU, KIAA1704 /// LOC100996395 / Fold change vs veh, KIAA1704 /// LOC100996395 / RFU, ING1 / Fold change vs veh, ING1 / RFU, TRMT61B / Fold change vs veh, TRMT61B / RFU, FUBP3 / Fold change vs veh, FUBP3 / RFU, TP53 / Fold change vs veh, TP53 / RFU, TNKS2 / Fold change vs veh, TNKS2 / RFU, ZFP14 / Fold change vs veh, ZFP14 / RFU, ACTR2 / Fold change vs veh, ACTR2 / RFU, PPP3R1 / Fold change vs veh, PPP3R1 / RFU, PIK3R1 / Fold change vs veh, PIK3R1 / RFU, HNRNPA1 / Fold change vs veh, HNRNPA1 / RFU, RNF170 / Fold change vs veh, RNF170 / RFU, ZNF28 / Fold change vs veh, ZNF28 / RFU, RNGTT / Fold change vs veh, RNGTT / RFU, OGT / Fold change vs veh, OGT / RFU, BRD1 / Fold change vs veh, BRD1 / RFU, MARS / Fold change vs veh, MARS / RFU, ZNF655 / Fold change vs veh, ZNF655 / RFU, FAHD1 / Fold change vs veh, FAHD1 / RFU, BDP1 / Fold change vs veh, BDP1 / RFU, LRRCC1 / Fold change vs veh, LRRCC1 / RFU, ARID1A / Fold change vs veh, ARID1A / RFU, ZNF146 / Fold change vs veh, ZNF146 / RFU, ZNF330 / Fold change vs veh, ZNF330 / RFU, GPN3 / Fold change vs veh, GPN3 / RFU, C9orf123 / Fold change vs veh, C9orf123 / RFU, N4BP2L2 / Fold change vs veh, N4BP2L2 / RFU, ARFIP1 / Fold change vs veh, ARFIP1 / RFU, FAM179B / Fold change vs veh, FAM179B / RFU, BCL10 / Fold change vs veh, BCL10 / RFU, UHRF1BP1L / Fold change vs veh, UHRF1BP1L / RFU, BET1 / Fold change vs veh, BET1 / RFU, CNOT2 / Fold change vs veh, CNOT2 / RFU, ZNF268 / Fold change vs veh, ZNF268 / Fold change vs veh, ZNF507 / RFU, DGCR2 / Fold change vs veh, DGCR2 / RFU, WDSUB1 / Fold change vs veh, WDSUB1 / Fold change vs veh, HSP90B1 /// MIR3652 / RFU, ADSS / Fold change vs veh, ADSS / RFU, GK / Fold change vs veh, GK / RFU, ZNF148 / Fold change vs veh, ZNF148 / RFU, TAF9 / Fold change vs veh, TAF9 / RFU, SLC1A5 / Fold change vs veh, SLC1A5 / RFU, SLMO2 / Fold change vs veh, SLMO2 / RFU, ABCC4 / Fold change vs veh, ABCC4 / RFU, LOC101060439 /// RAP1B / Fold change vs veh, LOC101060439 /// RAP1B / RFU, RFX7 / Fold change vs veh, RFX7 / RFU, GTPBP10 / Fold change vs veh, GTPBP10 / RFU, CNEP1R1 / Fold change vs veh, CNEP1R1 / RFU, BIVM-ERCC5 /// ERCC5 / Fold change vs veh, BIVM-ERCC5 /// ERCC5 / RFU, ILF3 / Fold change vs veh, ILF3 / RFU 11762660_at / Fold change /veh 11762660_at / RFU VCAN (11757783_s_at) / Fold change /veh VCAN (11757783_s_at) / RFU DDX43 (11728927_at) / Fold change /veh DDX43 (11728927_at) / RFU KRT8 (11758188_x_at) / Fold change /veh KRT8 (11758188_x_at) / RFU NKD1 (11759106_at) / Fold change /veh NKD1 (11759106_at) / RFU SRD5A1 (11742802_a_at) / Fold change /veh SRD5A1 (11742802_a_at) / RFU TPSAB1 /// TPSB2 (11721975_s_at) / Fold change /veh TPSAB1 /// TPSB2 (11721975_s_at) / RFU GSTM3 (11746129_a_at) / Fold change /veh GSTM3 (11746129_a_at) / RFU IL23R (11737362_x_at) / Fold change /veh IL23R (11737362_x_at) / RFU TMEM51 (11727254_a_at) / Fold change /veh TMEM51 (11727254_a_at) / RFU PIWIL2 (11732686_x_at) / Fold change /veh PIWIL2 (11732686_x_at) / RFU ORM1 (11744905_x_at) / Fold change /veh ORM1 (11744905_x_at) / RFU CCDC152 (11743942_at) / Fold change /veh CCDC152 (11743942_at) / RFU ECM1 (11717891_a_at) / Fold change /veh ECM1 (11717891_a_at) / RFU IL23R (11748794_a_at) / Fold change /veh IL23R (11748794_a_at) / RFU TNFAIP8L3 (11732012_x_at) / Fold change /veh TNFAIP8L3 (11732012_x_at) / RFU MBOAT4 (11741988_at) / Fold change /veh MBOAT4 (11741988_at) / RFU 11764193_at / Fold change /veh 11764193_at / RFU TMEM53 (11763286_at) / Fold change /veh TMEM53 (11763286_at) / RFU MAGEB2 (11727129_at) / Fold change /veh MAGEB2 (11727129_at) / RFU TMEM200A (11744735_a_at) / Fold change /veh TMEM200A (11744735_a_at) / RFU CCDC152 (11751479_a_at) / Fold change /veh CCDC152 (11751479_a_at) / RFU FAM211A (11726209_a_at) / Fold change /veh FAM211A (11726209_a_at) / RFU RGS16 (11746705_a_at) / Fold change /veh RGS16 (11746705_a_at) / RFU VCAN (11755009_s_at) / Fold change /veh VCAN (11755009_s_at) / RFU RHOB (11743442_s_at) / Fold change /veh RHOB (11743442_s_at) / RFU RGS16 (11720943_a_at) / Fold change /veh RGS16 (11720943_a_at) / RFU RGS16 (11720944_at) / Fold change /veh RGS16 (11720944_at) / RFU, VPS4B / Fold change vs veh, VPS4B / RFU, CREB1 / Fold change vs veh, CREB1 / RFU, DNAJC13 / Fold change vs veh, DNAJC13 / RFU, GNAQ / Fold change vs veh, GNAQ / RFU, CDK5R1 / Fold change vs veh, CDK5R1 / RFU, ZRANB3 / Fold change vs veh, ZRANB3 / RFU, CUL4A / Fold change vs veh, CUL4A / RFU, CCNY / Fold change vs veh, CCNY / RFU, UFL1 / Fold change vs veh, UFL1 / RFU, COG3 / Fold change vs veh, COG3 / RFU, DIAPH2 / Fold change vs veh, DIAPH2 / RFU, SKA2 / Fold change vs veh, SKA2 / RFU, AFF3 / Fold change vs veh, AFF3 / RFU, LMF1 / Fold change vs veh, LMF1 / RFU, IPO11 / Fold change vs veh, IPO11 / RFU, DFFB / Fold change vs veh, DFFB / RFU, FOXP1 / Fold change vs veh, FOXP1 / RFU, CARD8 / Fold change vs veh, CARD8 / RFU, STRN3 / Fold change vs veh, STRN3 / RFU, ADK / Fold change vs veh, ADK / RFU, RASSF2 / Fold change vs veh, RASSF2 / RFU, WIPF1 / Fold change vs veh, WIPF1 / RFU, LARP1B / Fold change vs veh, LARP1B / RFU, RASA1 / Fold change vs veh, RASA1 / RFU, RB1 / Fold change vs veh, RB1 / RFU, PPFIA1 / Fold change vs veh, PPFIA1 / RFU, MAT2A / Fold change vs veh, MAT2A / RFU, CCT5 / Fold change vs veh, CCT5 / RFU, WDR92 / Fold change vs veh, WDR92 / RFU, CUX1 / Fold change vs veh, CUX1 / RFU, TTC7A / Fold change vs veh, TTC7A / RFU, TMEM135 / Fold change vs veh, TMEM135 / RFU, DEPTOR / Fold change vs veh, DEPTOR / RFU, CPM / Fold change vs veh, CPM / RFU, DNAJB6 / Fold change vs veh, DNAJB6 / RFU, CACNA2D3 / Fold change vs veh, CACNA2D3 / RFU, DTX4 / Fold change vs veh, DTX4 / RFU, TFCP2 / Fold change vs veh, TFCP2 / RFU, GMCL1 /// GMCL1P1 / Fold change vs veh, GMCL1 /// GMCL1P1 / RFU, AEBP2 / Fold change vs veh, AEBP2 / RFU, SNHG1 /// SNORD22 /// SNORD25 /// SNORD26 /// SNORD27 /// SNORD28 /// SNORD29 /// SNORD31 / Fold change vs veh, SNHG1 /// SNORD22 /// SNORD25 /// SNORD26 /// SNORD27 /// SNORD28 /// SNORD29 /// SNORD31 / Fold change (Aza/veh), C12orf56 (ProbeSet 11735607_a_at) / Fold change (ACY-1035/veh), C12orf56 (ProbeSet 11735607_a_at) / Fold change (Aza/veh), FGFR1OP (ProbeSet 11751329_s_at) / Fold change (ACY-1035/veh), FGFR1OP (ProbeSet 11751329_s_at) / Fold change (Aza/veh), VPS36 (ProbeSet 11739960_a_at) / Fold change (ACY-1035/veh), VPS36 (ProbeSet 11739960_a_at) / RFU SYPL1 (11715823_x_at) / Fold change /veh SYPL1 (11715823_x_at) / RFU IGFBP7 (11715501_s_at) / Fold change /veh IGFBP7 (11715501_s_at) / RFU REEP3 (11722064_at) / Fold change /veh REEP3 (11722064_at) / RFU IGLL1 (11728026_x_at) / Fold change /veh IGLL1 (11728026_x_at): dose or concentration left out as unconfirmed",
  "conditions": "ProbeSet 11749477_a_at; LIST B",
  "data": [
    {"smiles": "Nc1ncn([C@@H]2O[C@H](CO)[C@@H](O)[C@H]2O)c(=O)n1", "note": "[azacitidine]", "values": [
      {"measurement": "Fold change vs veh, EDEM3", "result": 0.89}
    ]}
  ]
}
